The results in this text go back to US12083168B2, “Treatment and detection of inherited neuropathies and associated disorders” (University of Miami, priority 2019, dated 2024).

For data set [1], the system named is flies with neuronal specific knockdown of both Sodh1 and Sodh2. The experiment in a line: Locomotor activity (negative geotaxis assay), Sodh1 and Sodh2 double knockdown flies. As to conditions: neuronal specific knockdown of Sodh1 and Sodh2, 80 μM in food, vs yw control flies. It counts as in vivo, Drosophila melanogaster. As for the experimental part: FIG. 7. Treatment with aldose reductase inhibitors Epalrestat and Ranirestat restore locomotor function in Sodh1 and Sodh2 double knockdown flies. Locomotor activity of control flies (yw) feeding with DMSO (dots, first data point from the left for each DAE point indicated), or flies with neuronal specific knockdown of Sodh1 and Sodh2 feeding with DMSO (squares, second data point from the left for each DAE point indicated), 80 μM Epalrestat (squares, third data point from the left for each DAE point indicated), or 80 μM Ranirestat (squares, forth data point from the left for each DAE point indicated). n=10 in each group. Data are presented as mean±s.d. Statistical analysis was performed using Two-Way ANOVA followed by post-hoc Tukey's multiple comparison test. ***P<0.001, ****P<0.0001. […] Equal amount of DMSO was mixed into the fly food as control. The vials were dried at room temperature for 12 h before feeding. For lifespan assay, 100 newly enclosed female flies of each group were collected and placed in vials of 20 individuals. Flies were transferred into new vials every 2 days and the number of dead flies was counted. Survival data was plotted using Kaplan-Meier plot and compared between groups using log-rank test. […] Flies that crossed the 8 cm line were counted. […]

The subject of data set [2] is Sodh2MB01265/MB01265 Drosophila. Nature of the data set: Sorbitol level in fly brain/head homogenates (UPLC). It counts as in vivo, Drosophila melanogaster. As to conditions: Sodh2MB01265/MB01265 flies at 10 DAE; fed from 2 DAE, 80 μM / 80 μg/ml in food.
Method: (FIG. 4B) Sorbitol level as measured by UPLC from brain/head homogenates and normalised to protein concentration from wild-type (yw, empty circle dots), Sodh2^MB01265/MB01265 (full circle dots) and neuron-specific knock-down of Sodh1 and Sodh1 by RNAi (square dots) Drosophilae at 10 days after eggs enclosure. Sodh2 Mimic and Sodh1 and Soh2 RNAi Drosophilae were fed with either 80 μM Epalrestat, 80 μM Ranirestat or DMSO. The graphs show the mean±s.d. A two-tailed t-test was performed to compare sorbitol level. Statistical significance is indicated as *, ** or *** if P-value <0.05, <0.01 or <0.001, respectively, unless otherwise specified.
Lysate samples underwent protein precipitation with Acetonitrile (1:5), ten-time dilution with Acetonitrile-water (50/50) and clean up on Oasis HLB cartridges (10 mg/1 ml), before injection in UPLC (3 μL). UPLC conditions: column, BEH Amide 1.7 μm (2.1×100 mm) at 88° C., eluent A, Acetonitrile 90%-water 5%-Isopropanol 5%, eluent B, Acetonitrile 80%-water 20%, gradient elution 0 min., 100% A, 3.6 min. 100% B, flow rate, 0.45 ml/min. The retention time of sorbitol was 2.7 min. MS/MS conditions: interface, Electrospray interface in negative ion mode, Multiple Reaction Monitoring acquisition, m/z 180.9→88.9 (CV 24, CE 15).
Unless specified, all flies were kept on cornmeal-molasses-yeast medium at 25° C., 65% humidity, with 12 h light/12 h dark cycles. […]
In data set [3] the test system is patient fibroblasts lacking functional SORD. Nature of the data set: Intracellular sorbitol level in patient fibroblasts (UPLC-MS/MS, normalised to protein content). The note with it: 72 hrs, Epalrestat 100 μM, Ranirestat 10 μM, vs DMSO. The class given is cell-based, human.
Method: Asynchronous cell cultures were grown to approximately 80% confluency and treated with epalrestat (100 μM), ranirestat (10 μM) or DMSO for 72 hours. Media containing the drugs or DMSO were changed every 24 hours.
Sorbitol determination in human fibroblast lysates was performed in ultra-performance liquid chromatography-tandem mass spectrometry (UPLC-MS/MS) (Waters Acquity UPLC & TQD mass spectrometer—Waters, Milford, MA, USA). […] Lysate samples underwent protein precipitation with Acetonitrile (1:5), ten-time dilution with Acetonitrile-water (50/50) and clean up on Oasis HLB cartridges (10 mg/1 ml), before injection in UPLC (3 μL). UPLC conditions: column, BEH Amide 1.7 μm (2.1×100 mm) at 88° C., eluent A, Acetonitrile 90%-water 5%-Isopropanol 5%, eluent B, Acetonitrile 80%-water 20%, gradient elution 0 min., 100% A, 3.6 min. 100% B, flow rate, 0.45 ml/min. The retention time of sorbitol was 2.7 min.
The effect of two commercially available aldose reductase inhibitors (ARI), Epalrestat and Ranirestat, were tested on intracellular sorbitol accumulation in patient fibroblasts lacking functional SORD. Patient and control fibroblasts were grown for 72 hrs in the presence or absence of Epalrestat (100 μM) or Ranirestat (10 μM) and intracellular sorbitol levels were measured thereafter.
Data set [4] has as its system Sodh2MB01265/MB01265 mutant flies. Nature of the data set: Age-dependent synaptic degeneration in the lamina (vacuoles, BRP immunostaining, confocal microscopy). It counts as in vivo, Drosophila melanogaster. As for the experimental part: FIGS. 4A-G. Treatment with aldose reductase inhibitors Epalrestat and Ranirestat decrease sorbitol level and restore function. (FIG. 4A) Intracellular sorbitol level as measured by UPLC and normalised to protein content in fibroblasts from healthy controls (n=5, circle dots) and patients carrying biallelic nonsense mutations in SORD (n=5, square dots) after three days of treatment with Epalrestat 100 μM, Ranirestat 10 μM or DMSO. (FIG. 4B) Sorbitol level as measured by UPLC from brain/head homogenates and normalised to protein concentration from wild-type (yw, empty circle dots), Sodh2^MB01265/MB01265 (full circle dots) and neuron-specific knock-down of Sodh1 and […] (square dots) Drosophilae at 10 days after eggs enclosure. Sodh2 Mimic and Sodh1 and Soh2 RNAi Drosophilae were fed with either 80 μM Epalrestat, 80 μM Ranirestat or DMSO. The graphs show the mean±s.d. A two-tailed t-test was performed to compare sorbitol level. Statistical significance is indicated as *, ** or *** if P-value <0.05, <0.01 or <0.001, respectively, unless otherwise specified. All experiments were repeated independently twice with similar results. (FIG. 4C) Locomotor activity of control flies (yw) feeding with DMSO, Sodh2^MB01265/MB01265 flies feeding with DMSO, 80 μM Epalrestat, or 80 μM Ranirestat (n=10 in each group). Data are presented as mean±s.d. Statistical analysis was performed using Two-Way ANOVA followed by post-hoc Tukey's multiple comparison test. *P<0.05, ***P<0.001 (FIGS. 4D-4F) Laminae of Sodh2^MB01265/MB01265 homozygous flies at 10 DAE and 40 DAE fed with DMSO (FIG. 4D), 80 μM Epalrestat (FIG. 4E), or 80 μM Ranirestat (FIG. 4F). Arrowheads indicate the lamina vacuoles. Boxes indicate higher magnification areas of the lamina. The intensity of BRP is indicated. […] (FIG. 4G) Quantification of the vacuole number, size, and BRP intensity of (FIGS. 4D-4F). n=3. […]
Brain dissection and staining were carried out as previously described (Brazill et al., J Vis Exp. 2018; (138)). […] Images were processed and analyzed using FluoView 10-ASW (Olympus).

In data set [5] the test system is Sodh2MB01265/MB01265 flies. The experiment in a line: Locomotor activity (negative geotaxis assay), Sodh2 mutant flies. The class given is in vivo, Drosophila melanogaster. The note with it: 80 μM in food, vs yw control flies. The procedure:
[…] Equal amount of DMSO was mixed into the fly food as control. The vials were dried at room temperature for 12 h before feeding.
For lifespan assay, 100 newly enclosed female flies of each group were collected and placed in vials of 20 individuals. Flies were transferred into new vials every 2 days and the number of dead flies was counted. Survival data was plotted using Kaplan-Meier plot and compared between groups using log-rank test. For negative geotaxis behavior assay, 10 age-matched female flies were placed in a vial marked with a black line drawn horizontally 8 cm above the bottom. Flies were given 60 min to fully recover from CO2 anesthesia, and were gently tapped onto the bottom and given 10 s to climb. Flies that crossed the 8 cm line were counted. For each vial, this assay was repeated 10 times, and 10 independent vials of each group (a total 100 flies per group) were tested. To minimize observer-expectancy bias, this assay was performed with the examiner masked to the group assignment.

The subject of data set [6] is aldose reductase (AR) (AKR1B1 gene). Nature of the data set: Knock-down of aldose reductase by antisense oligonucleotide, Western blot normalized to β-tubulin. It counts as cell-based, Homo sapiens. As to conditions: SORD patient fibroblast and control fibroblasts; scrambled ASO (AR-S 1A) as control. The procedure: FIGS. 15A-15D. […] This was carried out in a SORD patient fibroblast and control fibroblasts and normalized to β-tubulin and measured via Western blot (FIGS. 15C-15D).
Fibroblasts were lysed in RIPA buffer (ThermoFisher) containing protease inhibitor (Roche) and sonicated for 5 minutes with the Bioruptor sonication device (Diagenode). Cell lysates were centrifuged at 13,000×g for 10 minutes at 4° C., and the supernatant was collected for protein quantification (Pierce BCA Protein Assay Kit). 30 μg of protein sample was mixed with Bolt LDS Sample Buffer and Sample Reducing Agent (ThermoFisher) and heated at 90° C. for 5 min. Samples were loaded on Bolt 4-12% Bis-Tris Plus mini-gel followed by transfer into a nitrocellulose membrane (Bio-Rad). Membrane was blocked with 5% non-fat milk and incubated with anti-SORD (ab189248, Abcam) antibody for 2 hours, washed with TBS containing 0.01% Tween 20 (Bio-Rad) and incubated with a secondary anti-rabbit antibody (Cell Signaling). Membrane was subsequently incubated with GAPDH primary antibody (Santa Cruz) and secondary anti-mouse antibody (Cell Signaling). Chemoluminescence detection was performed with the SuperSignal West Pico PLUS Chemiluminescent Substrate and imaged with the FluorChem E (ProteinSimple).
Background: Immunoblotting shows a protein as a band on a membrane.

Setting [7] is: Sodh2MB01265/MB01265 flies, at both 10 and 40 DAE, 80 μM in food.

Turning to `O=C1C[C@@]2(C(=O)N1)C(=O)N(Cc1ccc(Br)cc1F)C(=O)c1cccn12` [Ranirestat], the locomotor activity entry in data set [1] is reported as “rescued to the levels of yw control flies”. Also, the “sorbitol level in fly heads” value in data set [2] is listed as “significant reduction of sorbitol level”. The intracellular sorbitol level entry in data set [3] is “significant reduction of sorbitol to a level comparable to controls”. For the same molecule, in data set [4] (setting [7]), the “localization of synaptic cytomatrix protein BRP” value is “restored the localization of synaptic cytomatrix protein BRP” and the “number of lamina vacuoles” value is “reduced the number of vacuoles”. In data set [4] (Sodh2MB01265/MB01265 mutant flies, drug feeding), the age-dependent synaptic defects result was “restored the age-dependent synaptic defects”. Moreover, in data set [5], the locomotor activity entry is “rescued to the levels of yw control flies”.
As to “AR 1A: antisense oligonucleotide (ASO) targeting aldose reductase (AKR1B1), SEQ ID NO: 22, GTTTAAGATCATCTCCACCT, modified backbone (modified backbone, type not given here)”, the “aldose reductase protein level (knock-down)” value in data set [6] is listed as “Significant knock-down”.
